Test results from patent US12275685B2, “Oligo-benzamide analogs and their use in cancer treatment” (Board of Regents, The University of Texas System, priority 2018, dated 2025).
“Also recorded” adds a separate entry of the source. Like-named read-outs stand apart in the source and are kept apart here.

Experiments:
[1] = tested on: cell lines driven by MT-ERα; experiment: sXBP1 and CHOP RNA expression; settings: three cell lines driven by MT-ERα
[2] = tested on: MCF-7 expressing mutant D538G; experiment: Protein synthesis by puromycin labeling, BC cells; format: cell-based; settings: 16 h
[3] = tested on: WT- and MT-ERα-driven cell lines (MCF-7, ZR-75); experiment: Anti-proliferative activity in WT- and MT-ERα-driven cell lines; format: cell-based
[4] = tested on: MT-ERα (ZR-75 and MCF-7 cells with MT Y537S ERα) driven xenograft models; experiment: ERX-315 in MT-ERα BC xenograft models; format: in vivo; settings: for growth of MT-ERα xenografts / mouse liver, uterus, body weight: oral 10 mg/kg; for growth of MT-ERα xenografts: captisol
Procedure: Following establishment of tumors, mice (n=6/group) were randomized and treated for 5 days/week with either 10 mg/kg/oral of ERX-315 or vehicle.

MT-ERα [5] = experiment: RNA sequencing of MT-ERα transcriptional programme; format: cell-based; settings: MCF-7 and ZR-75 cells expressing D538G and Y537S MT-ERα
Excerpt: (§1) FIGS. 66A-D: (FIG. 66A) Effect of ERX-315 on ERa DNA binding on the promoters of 5 canonical ERα-regulated genes with ERa ChIP in MCF-7 expressing D538G MT-ERα in the absence and presence of estradiol.
(§2) Prior studies have shown that MT-ERα drives a canonical ERα transcriptional programme, both in the absence and presence of estradiol. RNA sequencing studies indicate that ERX-315 alters the transcriptional heatmap in MCF-7 and ZR-75 cells expressing D538G and Y537S MT-ERα (FIG. 66B, data shown for MCF-7 cells expressing D538G MT-ERα).

D538G MT-ERα [6] = experiment: ERE reporter assay, ERX-315; format: cell-based; settings: MCF-7 cells expressing D538G MT-ERα
[7] = Pharmacokinetic studies of ERX-315; format: in vivo, mice
Procedure: At 24 h after oral administration, ERX-315 was still detectable in the plasma at >500 ng/mL. […] Thus, the inventors' initial studies indicate that once a day oral dosing of 10 mg/kg ERX-315 in captisol is sufficient to maintain therapeutic drug levels.

HMEC cells = experiment: Protein synthesis by puromycin labeling, HMEC; format: cell-based, human
breast cancer cells = experiment: Growth inhibition of breast cancer cells; format: cell-based; settings: read-out: IC50, activity against breast cancer cells
Excerpt: In addition, another tris-benzmaide compound TK208 was synthesized and tested against breast cancer and ovarian cancer cell lines (FIGS. 10-15). […] These compounds (e.g., TK41, TK208, TK308 (FIG. 21), TK309 (FIG. 22), TK314, TK315) are extremely potent compounds that inhibit tumor growth and kill breast and ovarian cancer cells and as such, they are superb therapeutic candidates for such diseases.

MT-ERα [8] = experiment: MT-ERα protein levels; format: cell-based; settings: over 12-24 h
WT ERα LBD = target: T1, WT ERα LBD (Homo sapiens, UniProt P03372); experiment: LanthaScreen TR-FRET ERα coactivator assay; format: binding
T1 construct: in the presence of 3.5 nM ER Alpha-LBD (GST); purchased
T1 sequence (P03372 311-547 limits assumed): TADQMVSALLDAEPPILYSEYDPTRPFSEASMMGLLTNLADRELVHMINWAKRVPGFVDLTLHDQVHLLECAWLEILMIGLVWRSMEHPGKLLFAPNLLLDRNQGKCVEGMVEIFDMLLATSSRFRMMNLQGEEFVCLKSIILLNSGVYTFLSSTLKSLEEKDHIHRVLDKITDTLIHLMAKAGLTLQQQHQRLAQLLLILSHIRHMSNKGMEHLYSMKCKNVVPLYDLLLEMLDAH

D538G MT-ERα [9] = experiment: ERα ChIP, ERX-315; format: cell-based
Excerpt: as §1, §2

[10] = tested on: human mammary epithelial cells (HMEC); experiment: Activity of ERX-315 in HMEC; format: cell-based
Excerpt: ERX-315. The binding of ERX-315 (structure shown in FIG. 65C) to ERα has been validated for WT ERα LBD using time-resolved FRET (TR-FRET)-ERα Coactivator assay (FIG. 65D: purified MT-ERα LBD is not available). […] In contrast, ERX-314, which has a methyl group in place of the N-terminal fluoride of ERX-315, is modeled to bind less avidly to MT-ERα LBD (predicted docking energy˜[…]). […] ERX-315 had no activity against benign breast epithelial cells, shown for the human mammary epithelial cells (HMEC). In contrast, ERX-314 has dramatically lower potency (IC50˜1500-5000 nM) and serves an internal control for ERX-315. The inventors have performed most of the studies described below with three compounds-ERX-315 as the optimized lead, ERX-11 as the parental compound and ERX-314 as a negative control.

[11] = tested on: BC cells expressing MT-ERα; experiment: Uncompensated UPR / LC3B activation; format: cell-based
Procedure: ERX-315 decreases expression of ERα MCF-7 cells with MT-ERα, both the Y537S and D538G mutants (FIG. 67C), around 12-16 h (FIG. 67D). […] In contrast, neither fulvestrant nor GDC-0810 consistently degrade MT-ERa nor induce LC3.

For `CC(C)COc1cc(C(=O)Nc2ccc(C(=O)N[C@H]3CC[C@H](C(=O)Nc4cnc5ccccc5c4)CC3)cc2OCC(C)C)ccc1NC(=O)c1ccc(F)c(OCCO)c1` [TK315], the “expression of sXBP1 and CHOP at the RNA level” value [1] was “significantly enhance”, the “shutdown of protein synthesis in BC cells” value [2] was “Global shutdown of protein synthesis” and the IC50 [3] was 15 to 35 nM. For the same molecule, the “Ki67 proliferation indices in tumors” value ([4]; mouse, in vivo) was “dramatically decreased Ki67 proliferation indices”, the “growth of MT-ERα xenografts” value ([4]; 10 mg/kg) was “potent activity; also recorded: decreased the growth and tumor weight” and the “growth of MT-ERα xenografts” value ([4]; listed as ERX-315, 10 mg/kg) was “decreased the growth; also recorded: potent activity”. For the same molecule, the “mouse liver, uterus, body weight” value ([4]; 10 mg/kg) was “no effect on mouse liver or body weight; also recorded: No change in body weight”, the “mouse liver, uterus, body weight” value ([4]; listed as ERX-315, 10 mg/kg) was “no change in body weight; also recorded: no effect on mouse liver, uterus height or body weight” and the immunogenicity ([4]; syngeneic D2A1 tumors, spleen, lymph nodes, kidney, liver) was “not immunogenic”. For the same molecule, the MT-ERα transcriptional programme (MT-ERα [5]) was “efficiently blocks the transcriptional programme”, the ERE-driven transcription (D538G MT-ERα [6]) was “attenuate transcription” and the oral bioavailability ([7]; captisol formulation) was “orally bioavailable”. For the same molecule, the concentration at 0.5 h ([7]; mouse, blood, 0.5 hr, single oral 10 mg/kg in captisol) was 3440 ± 2320 ng/mL, the concentration at 1 h ([7]; mouse, blood, 1 hr, single oral 10 mg/kg in captisol) was 2400 ± 1460 ng/mL and the concentration at 2 h ([7]; mouse, blood, 2 hr, single oral 10 mg/kg in captisol, read-out: Blood) was 1840 ± 1290 ng/mL. For the same molecule, the concentration at 4 h ([7]; mouse, blood, 4 hr, single oral 10 mg/kg in captisol, read-out: Blood) was 16000 ± 394 ng/mL, the concentration at 8 h ([7]; mouse, blood, 8 hr, single oral 10 mg/kg in captisol, read-out: Blood) was 823 ± 123 ng/mL and the concentration at 16 h ([7]; mouse, blood, 16 hr, single oral 10 mg/kg in captisol, read-out: Blood) was 427 ± 197 ng/mL. It also gave a concentration at 24 h ([7]; mouse, plasma, 10 mg/kg, 24 h after oral administration, read-out: plasma level) greater than 500 ng/mL, a half-life ([7]; mouse, plasma, 10 mg/kg, oral, captisol) of roughly 4.5 h and a concentration at 2 h ([7]; mouse, tumor, 10 mg/kg, 2 hr after last dose, MCF7 xenograft, oral 5 days/week for 10 days, read-out: Tumor) of 1430 ± 631 ng/mL. It also gave a concentration at 4 h ([7]; mouse, tumor, 10 mg/kg, 4 hr after last dose, MCF7 xenograft, oral 5 days/week for 10 days, read-out: Tumor) of 1010 ± 850 ng/mL, a concentration at 8 h ([7]; mouse, tumor, 10 mg/kg, 8 hr after last dose, MCF7 xenograft, oral 5 days/week for 10 days, read-out: Tumor) of 609 ± 404 ng/mL and a concentration at 16 h ([7]; mouse, tumor, 10 mg/kg, 16 hr after last dose, MCF7 xenograft, oral 5 days/week for 10 days, read-out: Tumor) of 187 ± 238 ng/mL. The concentration at 16 h ([7]; mouse, tumor, oral, 10 mg/kg, 16 h after the last dose, read-out: corresponding tumor concentration) was greater than 100 nM, the concentration at 16 h ([7]; mouse, tumor, MCF-7 xenograft, 2 weeks daily oral 10 mg/kg, 16 h after the last dose, read-out: tumor tissue level) was greater than 100 ng/g and the “toxicity at 10 mg/kg” value ([7]; once a day oral 10 mg/kg) was “no significant toxicity”. For the same molecule, the “shutdown of protein synthesis in HMEC” value (HMEC cells) was “no significant shutdown of protein synthesis”, the IC50 (breast cancer cells) was 10 to 50 nM and the “protein levels of mutant ERα” value (MT-ERα [8]) was less than 10 % basal. For the same molecule, the “binding to WT ERα LBD” value (WT ERα LBD) was “validated”, the “MT-ERα binding to promoters of ERα-regulated genes” value (D538G MT-ERα [9]) was “dramatically decreases MT-ERα binding” and the “activity against benign breast epithelial cells” value [10] was “no activity”. For the same molecule, the “uncompensated UPR leading to LC3B activation and cell death” value [11] was “induced uncompensated UPR”.
